Patent US11155668B2, “Contact-killing, QAC functionalized thermoplastic polyurethane for catheter applications” (THE UNIVERSITY OF AKRON, priority 2017, dated 2021)

Experiments:
S. epidermidis = assay: Contact-killing assay (adapted from ISO 22196) on allyl-TPU blade-coated samples modified with Qx-SH; assay type: cell-based, Staphylococcus epidermidis (ATCC 12228); conditions: n = 2, negative control polypropylene 0.93 (±0.03) × 10^5
Method: (§1) To functionalize the allyl-TPU blade-coated samples with Qx-SH reagents, thiol-ene reactions were performed using the same procedure described for rhodamine-SH. Briefly, blade-coated films of allyl-TPU (250 μm thick, 2.0 cm diameter, ca. 110 mg, 20 μmol allyl) were submerged in 2 mL of an Ar purged (30 min) aqueous solution containing Qx-SH (10.0 mM) and LAP (5.0 mM), and allowed to pre-soak for 30 min under Ar. UV-treated samples were irradiated for 30 min (λ=365 nm, I=1.2 mW·cm^−2) while phys. ads. samples were kept in the absence of UV light for 30 min to control for any antimicrobial activity that is contributed by non-covalently attached QAC. Following treatment, the dye/photoinitiator solutions were drawn up and discarded, and the samples were rinsed with 5 mL of DI water (3×) then submerged in 5 mL of DI water. The samples were further rinsed with 10% EtOH (3×) and soaked in 10% EtOH for 15 min (3×), rinsing with 10% EtOH in between each soak.
(§2) For antimicrobial testing, blade-coated samples and catheter tubing of allyl-TPU were sterilized by EtO sterilization using an Anprolene benchtop sterilizer (Anderson Products, Inc., Haw River, N.C.) following the manufacturer's protocol to deliver approximately 0.5 cc·L^−1 of EtO gas over a 12 h sterilization cycle at 35% humidity and room temperature, followed by a 48 h purge under vacuum. The bacterial strains used in this study included Staphylococcus epidermidis (ATCC 12228), Staphylococcus aureus (25923), Escherichia coli (ATCC 25922), Pseudomonas aeruginosa (ATCC 27853), Enterococcus faecalis (ATCC 29212), and methicillin-resistant Staphylococcus aureus (MRSA) (ATCC BAA-41).
(§3) The contact-killing assay was performed on physically adsorbed (phys. ads.), and UV-treated blade-coated samples modified with a series of Qx-SH reagents using a method adapted from ISO 22196. See, International Organization for Standardization. Measurement of antibacterial activity on plastics and other non porous surfaces (ISO 22196:2011), the disclosure of which is incorporated herein by reference in its entirety. Briefly, the samples were inoculated with same day cultures of select bacteria (e.g. E. coli, S. epidermidis) in dilute nutrient media (0.2% tryptic soy broth (TSB) in 1× phosphate buffered saline (PBS)) at approximately 150 colony-forming units (CFU)·mm^−2. Generally, 35 uL of 8.5×10^5 CFU/mL cultures were dispersed across the surface of the sample using sterile polypropylene cover films (area=198 mm^2). Inoculated samples were incubated in a humidified room air incubator (36° C., ca. 80% rel. humidity) for 20 h. Following incubation, surviving cells were recovered from the samples using vigorous agitation (i.e. vortexing for 20 s in PBS). Surviving cells were enumerated via 10-fold series dilution and plating 100 μL onto tryptic soy agar (TSA), incubating overnight and then plate counting CFU. The mean CFU recovered per sample (CFU/sample) were calculated by accounting for dilutions. Internal controls samples of polypropylene and chlorhexidine treated with polypropylene were included in the assay.

P. aeruginosa = assay: as above; assay type: cell-based, Pseudomonas aeruginosa (ATCC 27853); conditions: for Mean CFU/Sample Recovered, P. aeruginosa: n = 1, negative control polypropylene 7.94 × 10^6
Method: as §1, §2, §3

For `CCCCCCCC[N+](C)(C)CCCCCCCCOC(=O)CCS.[Cl-]` [Q8-SH], the “Mean CFU/Sample Recovered, S.epidermidis” value (S. epidermidis; UV-treated samples) was 0.00 ± 0.00 CFU/Sample, the “Mean CFU/Sample Recovered, S.epidermidis” value (S. epidermidis; phys. ads. samples) was 0.00 ± 0.00 CFU/Sample and the “reduction of P. aeruginosa” value (P. aeruginosa; UV-treated samples) was “complete reduction”. The “Mean CFU/Sample Recovered, P. aeruginosa” value (P. aeruginosa; UV-treated samples) was 0.00 CFU/Sample, the “reduction of P. aeruginosa” value (P. aeruginosa; phys. ads. samples) was “complete reduction” and the “Mean CFU/Sample Recovered, P. aeruginosa” value (P. aeruginosa; phys. ads. samples) was 0.00 CFU/Sample.
